Source: article PMC11793105, “A kalihinol analog disrupts apicoplast function and vesicular trafficking in P. falciparum malaria” (Science (New York, N.Y.), 2024)
Like-named read-outs stand apart in the source and are kept apart here.

Assays:
[1] = test system: P. falciparum HB3 (MRA-155); assay: SYBR Green I growth inhibition assay, HB3; format: cell-based, Plasmodium falciparum; conditions: early-ring stage, 72 h exposure
Protocol: Fig. 1. […] (B) SYBR Green–based dose response assays were conducted on early-ring stage parasites (6 hours after invasion). […] 3D7 WT (blue), NF54 (green), drug-resistant strains Dd2 (red), HB3 (black), W2 (gray), and D10-ACP-GFP (purple) lines (Sigmoidal, 4PL, X is concentration, n ≥ 3, nonlinear regression, CI: 95%). (C) Schematic diagram of the development of P. falciparum after two consecutive erythrocytic cycles. The time points at which MED6-189 was introduced are depicted in green. HPS, hours post synchronization. […] The images depict various developmental stages of the parasite’s intraerythrocytic life cycle. Bordered images represent time points when drug was first introduced (n = 3 biological replicates, P < 0.05).
Detailed information on materials and methods is available in the supplementary materials. […] P. knowlesi assays were quantitatively measured by flow cytometry using SYBR Green I and Mitrotracker Deep Red, as previously described ([84], [85]), on a Beckman Coulter CytoFLEX. […]
(§1) P. falciparum in vitro SYBR green fluorescence-based assays The anti-malarial activity of individual analogues were evaluated in-vitro against P. falciparum 3D7 (MRA-102, drug […]
green-I based fluorescence assay. Parasite growth rate and stages of development were determined via microscopy through Giemsa-stained smears of the cultures. […]

[2] = test system: PfSec13-mut transgenic clones (3D7); assay: Parasite survival assay, CRISPR-Cas9 PfSec13-mut transgenic clones; format: cell-based; conditions: Plasmodium falciparum
Description: (§2) Fig. 4. […] (C) Schematic representation of the CRISPR-Cas9–based replacement strategy used to introduce a deletion of the targeted repeat regions in the PfSec13 gene. The insertion was achieved through overlap extension polymerase chain reaction (PCR) of fragments directly upstream and downstream of the target segment and subsequently formed by primer overlap extension PCR to replicate the desired deletion. […] (D) Predicted structure of the SEC13 protein highlighting the seven amino acid tandem repeat regions targeted for deletion (red). […] Data were analyzed using a Sigmoidal, 4PL (X represents concentration, n = 3, nonlinear regression, CI: 95%).
as §1
green-I based fluorescence assay. Parasite growth rate and stages of development were determined via microscopy through Giemsa-stained smears of the cultures. Serial dilutions of the compounds ranging from 10uM-0.5nM were prepared in 96-well plates (Corning, Costar 3904) followed by […]
hematocrit added to each well. Eight wells were treated with vehicle control (DMSO) as control.
Plates were incubated in a modular incubation chamber (Billups-Rothenberg, Del Mar, CA)

[3] = test system: P. falciparum 3D7 parasites; assay: Isopentenyl pyrophosphate (IPP) rescue assay; format: cell-based, Plasmodium falciparum; conditions: drug at IC80 for one IEC before IPP (200 μM)
Description: Fig. 2. […] Nuclei are stained with 4’,6-diamidino-2-phenylindole (DAPI; blue). […] (B) Dose-dependent interactions between MED6-189 (blue) and various antimalarials with known mechanisms of action (red). […] The regression line represents a nonlinear regression (variable slope with four parameters), with significant differences considered if P < 0.05. […] Isobologram curves are expected to be parallel to the diagonal for additive drug pairs, concave for synergistic drug pairs, and convex for antagonistic drug pairs. […] The analysis was performed using a two-way ANOVA, n = 3, with P < 0.05 significance.
IPP is a product of the MEP/DOXP pathway, and its supplementation reduces susceptibility to MEP inhibitors. […] Parasites were drugged at 80% inhibitory concentrations (IC80) for one IEC before IPP (200 μM) supplementation.

[4] = test system: S. cerevisiae strains with overexpressed or repressed Sec13p; format: cell-based, Saccharomyces cerevisiae; conditions: Tet-off promoter, doxycycline, vs WT yeast
Description: as §2
PCR amplification and introduced into an episomal E. coli/yeast shuttle vector, pRS425, by using an in-fusion cloning kit (Takara Bio USA, Inc) and the resulting pRS425-SEC13 plasmid was transformed into the BY4741 yeast strain. To swiftly repress the SEC13 gene, we utilized the tet-off system. This involved substituting the native SEC13 gene promoter with a tetracycline (tet)- regulatable counterpart, while leaving the original SEC13 open reading frame intact. The yeast

[C-]#[N+][C@]1(C)CC[C@H]2[C@@H]([C@@H](C(C)C)CC[C@]2(C)[N+]#[C-])[C@H]1O [MED6-189]
IC50 ([1]; Plasmodium falciparum, HB3, 72 h): 23 ± 2 nM | IC50 [1]: 22.8 nM | IC50 ([2]; 3D7, Sec13 mut-A): 59.8 nM | IC50 ([2]; 3D7, Sec13 mut-B): 53.5 nM | IC50 ([2]; 3D7, Sec13 mut-C): 49.5 nM | IC50 ([2]; 3D7, Sec13 mut-D): 72.9 nM | IC50 ([2]; 3D7, read-out: IC50 range, four PfSec13-mut transgenic clones): 50 to 73 nM | rescue of parasites by IPP supplementation [3]: can only be rescued by IPP for one additional cycle | increase in susceptibility on Sec13p repression [4]: ~ 5.5 fold
